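Cells were grown in 96-well plates and exposed to each compound for 48 hours at five concentrations; endpoints were interpolated linearly between bracketing concentrations, or set to the highest concentration if not reached. At the TGI there is no net growth.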
Tests used:
Test in all cases: inhibition of tumour cell growth, NCI panel, 48 h
[1] = tested on: OVCAR-4 ovarian
[2] = tested on: MOLT-4 leukemia
[3] = tested on: HCT-15 colon
[4] = tested on: UO-31 renal
[5] = tested on: MDA-MB-231 breast
[6] = tested on: SF-295 CNS
[7] = tested on: M14 melanoma
[8] = tested on: HOP-62 NSCLC
[9] = tested on: PC-3 prostate
[10] = tested on: A498 renal

SMILES	TGI [1]	TGI [2]	TGI [3]	TGI [4]	TGI [5]	TGI [6]	TGI [7]	TGI [8]	TGI [9]	TGI [10]
O=C(CN(C(=O)OC12CC3CC(CC(C3)C1)C2)C(=O)OC12CC3CC(CC(C3)C1)C2)Oc1ccc([N+](=O)[O-])cc1	> 100 µM	> 100 µM	> 100 µM	> 100 µM	> 100 µM	> 100 µM	> 100 µM	> 100 µM	> 100 µM	–
Cc1c(C)c(C)c(Cn2[nH]c(=O)n(C)c2=O)c(C)c1C	–	> 100 µM	> 100 µM	> 100 µM	> 100 µM	> 100 µM	> 100 µM	> 100 µM	> 100 µM	> 100 µM
CCC(C)C(N)C(=O)NC(CC(N)=O)C(=O)NC(CC(C)C)C(=O)NC(CCCCN)C(=O)NC(C)C(=O)NC(CC(C)C)C(=O)NC(C)C(=O)NC(C)C(=O)NC(CC(C)C)C(=O)NC(C)C(=O)NC(CCCCN)C(=O)NC(CCCCN)C(=O)NC(C(=O)NC(CC(C)C)C(N)=O)C(C)CC (centres undefined)	31.9 µM	38.5 µM	31.8 µM	32.1 µM	–	35.3 µM	8.64 µM	8.55 µM	–	32.5 µM
C=CCNC(=S)N1CC(C)C(=O)Nc2cc(Cl)ccc21 (centres undefined)	> 100 µM	> 100 µM	> 100 µM	> 100 µM	–	> 100 µM	> 100 µM	> 100 µM	–	> 100 µM
Cc1cccc(Br)[n+]1[O-]	> 100 µM	> 100 µM	> 100 µM	> 100 µM	> 100 µM	> 100 µM	> 100 µM	> 100 µM	> 100 µM	–
NCCSc1cc(O)c2c(c1N)C(=O)c1ccccc1C2=O	> 100 µM	63.8 µM	> 100 µM	> 100 µM	–	> 100 µM	> 100 µM	> 100 µM	–	> 100 µM
Cc1[nH]c(=O)[nH]c(=O)c1/C=C/C(=O)O (tested in a mixture with another compound)	> 625 µM	> 625 µM	> 625 µM	> 625 µM	–	> 625 µM	–	> 625 µM	–	> 625 µM
C=CCN1/C(=C(\C#N)c2nc3ccccc3[nH]2)Sc2c1nc[nH]c2=O	> 100 µM	> 100 µM	> 100 µM	> 100 µM	–	> 100 µM	> 100 µM	> 100 µM	–	> 100 µM
N#Cc1ccc(Cc2ccccn2)cc1Cl	> 100 µM	> 100 µM	–	> 100 µM	–	> 100 µM	–	> 100 µM	–	–
CC(=O)Oc1cc(S(=O)(=O)Nc2n[nH]c(Nc3ccc(C)cc3)n2)c(S)cc1Cl	> 100 µM	> 100 µM	> 100 µM	> 100 µM	> 100 µM	> 100 µM	> 100 µM	–	> 100 µM	> 100 µM
CC(CCC[C@H](C)CO)[C@H]1[C@@H](O)C(O)C2[C@@H]3C[C@@H](O)C4(O)C[C@@H](O)CC[C@]4(C)C3CC[C@@]21C (some centres undefined)	> 100 µM	> 100 µM	> 100 µM	> 100 µM	–	> 100 µM	> 100 µM	> 100 µM	–	–
CNC(=O)NCNC(=O)NC	> 100 µM	> 100 µM	> 100 µM	–	–	> 100 µM	> 100 µM	> 100 µM	–	> 100 µM
CC(=O)OC(CC1(C)C(C)CCC23COC(=O)C2=CCCC31)c1ccoc1 (centres undefined)	> 100 µM	90.3 µM	56.2 µM	60 µM	–	> 100 µM	33.9 µM	85.3 µM	–	> 100 µM
COC(=O)C1CCC(=O)N1C(c1cc(OC)c(OC)c(OC)c1)c1cc(OC)c(OC)c(OC)c1 (centres undefined)	–	> 100 µM	> 100 µM	> 100 µM	> 100 µM	> 100 µM	> 100 µM	> 100 µM	> 100 µM	> 100 µM
CCOC(=O)CC1COc2ccc3c(c21)OCO3 (centres undefined)	> 100 µM	> 100 µM	> 100 µM	> 100 µM	–	> 100 µM	> 100 µM	> 100 µM	–	> 100 µM
COc1cc(C2C3=C(COC3=O)Oc3cc4c(cc32)OCO4)ccc1O (centres undefined)	> 75.3 µM	> 100 µM	> 100 µM	–	–	–	> 100 µM	> 100 µM	> 83.2 µM	> 25.7 µM
CCOC(=O)C(=O)C=P(c1ccccc1)(c1ccccc1)c1ccccc1	> 100 µM	> 100 µM	> 100 µM	> 100 µM	–	> 100 µM	> 100 µM	> 100 µM	–	> 100 µM
NNC(=O)CC(=O)Nc1cccc(Cl)c1	> 100 µM	> 100 µM	> 100 µM	> 100 µM	> 100 µM	> 100 µM	–	> 100 µM	> 100 µM	> 100 µM
COc1ccc(OC)c(NCC(=O)Nn2cnc3ccc(S(=O)(=O)Nc4cc(OC)ccc4OC)cc3c2=O)c1	> 100 µM	> 100 µM	> 100 µM	> 100 µM	> 100 µM	> 100 µM	> 100 µM	> 100 µM	> 100 µM	–
CC(=O)c1[nH]c(NC(C)C)c(C(=S)Nc2ccccc2)c1N	> 100 µM	> 100 µM	> 100 µM	77.7 µM	66.3 µM	> 100 µM	39.7 µM	> 100 µM	–	82.9 µM
Clc1cccc(-c2sc(-c3ccsc3)cc2Cc2ccsc2)c1	> 10 µM	> 10 µM	> 10 µM	–	> 10 µM	> 10 µM	> 10 µM	> 10 µM	> 10 µM	–
Cc1cc(Cl)nc2nc(Cl)c(N)cc12	8.91 µM	> 22.6 µM	4.6 µM	9.54 µM	11.5 µM	29.9 µM	25.6 µM	19 µM	30.4 µM	–
COc1cc2c(c(OC)c1OC)-c1ccc(SC)c(=O)cc1C(CC(=O)Oc1cccc([N+](=O)[O-])c1)C2 (centres undefined)	> 100 µM	> 100 µM	2.24 µM	> 100 µM	–	> 100 µM	> 100 µM	> 100 µM	–	0.823 µM
COc1cc2c3cc1Oc1c(O)c(OC)cc4c1C(Cc1ccc(O)c(c1)Oc1ccc(cc1)CC3N(C)CC2)N(C)CC4 (centres undefined)	28.2 µM	30.8 µM	23.8 µM	29.3 µM	–	29.7 µM	7.8 µM	33.8 µM	–	32.2 µM
